Test results from patent US20250277066A1, “Substituted Pyridine-2,6-Bis(Phenylenephenolate) Complexes with Enhanced Solubility that are Useful as Catalyst Components for Olefin Polymerization” (ExxonMobil Chemical Patents Inc., priority 2022, published 2025).
“And” between values parts separate entries of the source, which are not always exact repeats. Equal entries are not always repeated.

Legend:
[1] = Propylene polymerization (PP) in small-scale autoclave reactors: yield, quench time, catalyst activity
Source text: Solutions of the pre-catalysts were made using toluene (ExxonMobil Chemical—anhydrous, stored under N2) (98%) or isohexane (ExxonMobil Chemical—polymerization grade, and purified as described below). Pre-catalyst solutions were typically 0.25 mmol/L.
Solvents, polymerization grade toluene and/or isohexanes were supplied by ExxonMobil Chemical Co. and are purified by passing through a series of columns: two 500 cc Oxyclear cylinders in series from Labclear (Oakland, Calif), followed by two 500 cc columns in series packed with dried […] (8-12 mesh; Aldrich Chemical Company), and two 500 cc columns in series packed with dried 5 Å mole sieves (8-12 mesh; Aldrich Chemical Company).
Polymerization grade propylene (C3) was used and further purified by passing it through a series of columns: 2250 cc Oxiclear cylinder from Labclear followed by a 2250 cc column packed with 3 Å mole sieves (8-12 mesh; Aldrich Chemical Company), then two 500 cc columns in series packed with 5 Å mole sieves (8-12 mesh; Aldrich Chemical Company), then a 500 cc column packed with Selexsorb CD (BASF), and finally a 500 cc column packed with Selexsorb COS (BASF).
Activation of the pre-catalysts was either by dimethylanilinium tetrakisperfluorophenylborate (Boulder Scientific or Albemarle Corp; Act ID=A) or is (hydrogenated tallow alkyl)methylammonium tetrakis(pentafluorophenyl)borate supplied as a 10 wt % solution in methylcyclohexane (Boulder Scientific; Act ID=B). Activators were typically used as a 0.25 mmol/L solution in toluene or isohexane.
Tri-n-octylaluminum (TnOAl or TNOA, Neat, AkzoNobel) was also used as a scavenger prior to introduction of the activator and pre-catalyst into the reactor. TNOA was typically used as a 5 mmol/L solution in toluene or isohexane.
Polymerizations were conducted in an inert atmosphere (N2) drybox using autoclaves equipped with an external heater for temperature control, glass inserts (internal volume of reactor=23.5 mL for C2 and C2/C8; 22.5 mL for C3 runs), septum inlets, regulated supply of nitrogen, ethylene and propylene, and equipped with disposable PEEK mechanical stirrers (800 RPM). The autoclaves were prepared by purging with dry nitrogen at 110° C. or 115° C. for 5 hours and then at 25° C. for 5 hours.
The reactor was prepared as described above, then heated to 40° C., and then purged with propylene gas at atmospheric pressure. Toluene or isohexanes, liquid propylene (1.0 mL) and scavenger (TNOA, 0.5 μmol) were added via syringe. The reactor was then brought to process temperature (70° C. or 100° C.) while stirring at 800 RPM. The activator solution, followed by the pre-catalyst solution, were injected via syringe to the reactor at process conditions. Reactor temperature was monitored and typically maintained within +/−1° C. Polymerizations were halted by addition of approximately 50 psi compressed dry air gas mixture to the autoclaves for approximately 30 seconds. The polymerizations were quenched based on a predetermined pressure loss (maximum quench value) or for a maximum of 30 minutes. The reactors were cooled and vented. The polymers were isolated after the solvent was removed in-vacuo. The actual quench time (s) is reported as quench time (s). Yields reported include total weight of polymer and residual catalyst. Catalyst activity is reported as grams of polymer per mmol transition metal compound per hour of reaction time (g/mmol·hr).
Polymerization results are collected in Tables 2 below. “Ex #” stands for example number. Example numbers starting with a “C” are comparative examples. “Cat ID” identifies the pre-catalyst used in the experiment. Corresponding numbers identifying the pre-catalyst (also referred to as pre-catalyst, catalyst, complex or compound) are located in the synthetic experimental section. T(° C.) is the polymerization temperature which was typically maintained within +/−1° C. “Yield” is polymer yield, and is not corrected for catalyst residue. […]

[2] = Rapid GPC of polymers (Mn, Mw, Mz, PDI); format: physicochemical; set-up: Mn / Mw / Mz: unit not given here
Description: For analytical testing, polymer sample solutions were prepared by dissolving polymer in 1,2,4-trichlorobenzene (TCB, 99+% purity from Sigma-Aldrich) containing 2,6-di-tert-butyl-4-methylphenol (BHT, 99% from Aldrich) at 165° C. in a shaker oven for approximately 3 hours. The typical concentration of polymer in solution was between 0.1 to 0.9 mg/mL with a BHT concentration of 1.25 mg BHT/mL of TCB. Samples were cooled to 135° C. for testing.
High temperature size exclusion chromatography was performed using an automated “Rapid GPC” system as described in U.S. Pat. Nos. 6,491,816; 6,491,823; 6,475,391; 6,461,515; 6,436,292; 6,406,632; 6,175,409; 6,454,947; 6,260,407; and 6,294,388; each of which is incorporated herein by reference. Molecular weights (weight average molecular weight (Mw), number average molecular weight (Mn) and z average molecular weight (Mz)) and molecular weight distribution (MWD=Mw/Mn), which is also sometimes referred to as the polydispersity (PDI) of the polymer, were measured by Gel Permeation Chromatography using a Symyx Technology GPC equipped with evaporative light scattering detector (ELSD) and calibrated using polystyrene standards (Polymer Laboratories: Polystyrene Calibration Kit S-M-10: Mp (peak Mw) between 5,000 and 3,390,000). Alternatively, samples were measured by Gel Permeation Chromatography using a Symyx Technology GPC equipped with dual wavelength infrared detector and calibrated using polystyrene standards (Polymer Laboratories: Polystyrene Calibration Kit S-M-10: Mp (peak Mw) between 580 and 3,039,000). […] No column spreading corrections were employed. Numerical analyses were performed using Epoch® software available from Symyx Technologies or Automation Studio software available from Freeslate. The molecular weights obtained are relative to linear polystyrene standards. Molecular weight data is reported in Table 2 under the headings Mn, Mw, Mz and PDI as defined above.

[3] = DSC melting point of polymers (TA-Q100); format: physicochemical
Description: Differential Scanning Calorimetry (DSC) measurements were performed on a TA-Q100 instrument to determine the melting point of the polymers. Samples were pre-annealed at 220° C. for 15 minutes and then allowed to cool to room temperature overnight. The samples were then heated to 220° C. at a rate of 100° C./minute and then cooled at a rate of 50° C./minute. Melting points were collected during the heating period. The results are reported in the Table 2 under the heading, Tm (° C.).

[4] = polypropylene made with activator A at 70° C.
[5] = polypropylene made with activator A at 100° C.
[6] = polypropylene made with activator B at 70° C.
[7] = polypropylene made with activator B at 100° C.
[8] = polymer made with activator A, T 70 ° C.
[9] = polymer made with activator A, T 100 ° C.
[10] = polymer made with activator B, T 70 ° C.
[11] = polymer made with activator B, T 100 ° C.

## CC(C)(C)c1cc2c(c(C34CC5CC(CC(C5)C3)C4)c1)[O][Zr-]1([CH3])([CH3])[O]c3c(cc(C(C)(C)C)cc3C34CC5CC(CC(C5)C3)C4)-c3ccccc3-c3cccc([n+]31)-c1ccccc1-2 [Complex 2]
[1]; activator B, T 70° C.
  Activity: 2,069,268 g P/mmol cat • hr and 4,201,200 g P/mmol cat • hr and 3,074,182 g P/mmol cat • hr
[1]; activator B, T 100° C.
  Activity: 2,345,000 g P/mmol cat • hr and 2,682,545 g P/mmol cat • hr and 2,225,032 g P/mmol cat • hr
[2]; [4]
  Mn: 51,771 and 73,251 and 79,137
  Mw: 409,655 and 422,884 and 427,915
  Mz: 1,643,708 and 1,794,768 and 1,704,507
[2]; polypropylene made with activator A at 70° C., Mw/Mn
  PDI: 7.91 and 5.77 and 5.41
[2]; [5]
  Mw: 157,755 and 118,735 and 149,968
  Mz: 608,816 and 547,511 and 649,731
[2]; polypropylene made with activator A at 100° C., Mw/Mn
  PDI: 3.82 and 5.79 and 4.78
[2]; [6]
  Mn: 142,243 and 146,842 and 153,727
  Mw: 528,329 and 583,343 and 515,347
  Mz: 1,786,121 and 2,112,818 and 1,774,716
[2]; polypropylene made with activator B at 70° C., Mw/Mn
  PDI: 3.71 and 3.97 and 3.35
[2]; [7]
  Mn: 63,491 and 54,833 and 47,288
  Mw: 180,083 and 161,679 and 169,722
  Mz: 621,548 and 531,840 and 733,298
[2]; polypropylene made with activator B at 100° C., Mw/Mn
  PDI: 2.84 and 2.95 and 3.59
[3]; [4]
  Tm: 147.1 °C and 148.3 °C
[3]; [5]
  Tm: 147.6 °C and 145.6 °C and 146.6 °C
[3]; [6]
  Tm: 148.8 °C and 149.3 °C and 148.6 °C
[3]; [7]
  Tm: 148.0 °C and 147.3 °C

## Cc1cc2[n+]3c(c1)-c1ccccc1-c1cc(C(C)(C)C)cc(C45CC6CC(CC(C6)C4)C5)c1[O][Zr-]3([CH3])([CH3])[O]c1c(cc(C(C)(C)C)cc1C13CC4CC(CC(C4)C1)C3)-c1ccccc1-2 [Complex 3]
[1]; activator A, T 70° C.
  Activity: 1,623,360 g P/mmol cat • hr and 2,345,333 g P/mmol cat • hr
[1]; activator B, T 70° C.
  Activity: 1,030,400 g P/mmol cat • hr and 1,074,880 g P/mmol cat • hr and 1,034,182 g P/mmol cat • hr
[1]; activator B, T 100° C.
  Activity: 844,235 g P/mmol cat • hr and 476,276 g P/mmol cat • hr and 766,154 g P/mmol cat • hr
[2]; [8]
  Mn: 151,894 and 189,341
  Mw: 555,461 and 618,660
  Mz: 2,204,591 and 1,998,977
  PDI: 3.66 and 3.27
[2]; [9]
  Mn: 97,418 and 70,184 and 116,079
  Mw: 211,821 and 182,436 and 245,630
  Mz: 590,904 and 640,309 and 691,819
  PDI: 2.17 and 2.60 and 2.12
[2]; [10]
  Mn: 251,087 and 247,428 and 294,324
  Mw: 611,739 and 605,320 and 723,438
  Mz: 1,641,465 and 1,654,930 and 2,228,894
  PDI: 2.44 and 2.45 and 2.46
[2]; [11]
  Mn: 136,672 and 115,932 and 136,724
  Mw: 263,279 and 217,696 and 285,817
  Mz: 693,703 and 504,146 and 859,182
  PDI: 1.93 and 1.88 and 2.09
[3]; [8]
  Tm: 150.4 °C and 150.9 °C
[3]; [9]
  Tm: 149.4 °C and 148.1 °C and 150.1 °C
[3]; [10]
  Tm: 150.5 °C and 150.9 °C
[3]; [11]
  Tm: 148.9 °C and 149.8 °C
